One assay relates to peroxydation lipidique. As to the kind of experiment: Lipid peroxidation measurement in mouse hippocampus (colorimetric, CHP equivalents). The format is in vivo, souris. The following applies: Etifoxine 12,5-50 mg/kg per day IP, Aβ25-35 ICV, day 10. An excerpt: Le 1^er jour : une version « mélangée » (scrambled) du peptide amyloïde β25-35 (Sc.Aβ, témoin négatif) ou le peptide amyloïde β25-35 (Aβ25-35) est injecté par voie intra-cérébroventriculaire (ICV) (le peptide Aβ25-35 provoque l'intoxication cellulaire). Entre le 1^er jour et le 10^ème jour, les traitements sont administrés une fois par jour par voie intrapéritonéale (IP).
A la fin de la session de rétention d'évitement passif, le 10^ème jour, les animaux sont sacrifiés par décapitation. L'hippocampe et le cortex frontal sont disséqués et congelés dans l'azote liquide. L'hippocampe est utilisé pour mesurer le taux de peroxydation lipidique à l'aide d'une méthode colorimétrique et pour évaluer les taux de 4 marqueurs biochimiques par des tests ELISA. Le cortex est conservé à -80°C en attente d'analyses supplémentaires. Les plasmas sont également conservés en attente d'analyses supplémentaires. Les échantillons biologiques sont jetés après 3 mois.
Les souris de chaque groupe sont sacrifiées par décapitation et les deux hippocampes sont prélevés, pesés et conservés dans de l'azote liquide jusqu'à l'analyse. […] Après avoir lu l'absorbance à 580 nm (A5801), 10 µl d'hyperoxyde de cumène (CHP) (1 mM) sont ajoutés à l'échantillon et il est incubé pendant 30 minutes à température ambiante pour déterminer le degré d'oxydation maximal. L'absorbance est mesurée à 580 nm (A5802). […]

For the next assay, the system named is neurones corticaux. As to the kind of experiment: Survival of cortical neurons after Aβ1-42 intoxication (MAP-2 immunostaining). The format is cell-based, rats. The following applies: 1 h pre-incubation, Aβ1-42 10 µM, 24 h. The procedure:
Des neurones corticaux de rats sont mis en culture comme dans la méthode décrite par Singer (1999) J. Neurosci. 19:2455-2463. Des rats femelles enceintes de 15 jours sont tuées par dislocation des cervicales (Rats Wistar, Janvier) et le fœtus est retiré de l'utérus. Les cortex sont prélevés et placés dans un milieu glacé de Leibovitz (L15, Panbiotech, Réf : P04-27055, lot : 9310614) contenant 2% de pénicilline (10 000 U/ml) et de streptomycine (10 mg/ml) (PS, Panbiotec, Réf : P06-07100, lot : 48101114) et 1% de sérum-albumine bovine (BSA, Panbiotech, Réf : P06-1391100, lot : H140603). Les cortex sont dissociés par trypsination (0,05% Panbiotech, Réf : P10-023100, lot : 5890314) pendant 20 minutes à 37°C. La réaction est stoppée par addition d'un milieu Eagle modifié de Dulbecco (DMEM, Panbiotech, réf P04-03600, lot : 9670913) contenant de la DNase I grade Il (0,1 mg/ml Panbiotech, Réf : P60-37780100, lot : H140508) et 10 % de sérum de veau fœtal (FCS, Invitrogen, Réf : 10270 à 098, lot : 41Q4120K). Les cellules sont dissociées mécaniquement par 3 passages à travers une pipette de 10 ml. Les cellules sont ensuite centrifugées à 515 g pendant 10 minutes à 4°C. […]

As for `CCNC1=Nc2ccc(Cl)cc2C(C)(c2ccccc2)O1` (stereo not drawn) [Etifoxine, chlorhydratede 6-chloro-2-éthylamino-4-méthyl-4-phényl-4H-[3,1]benzoxazine], the “peroxydation lipidique dans l'hippocampe (stress oxydatif induit par Aβ25-35)” value in the assay with peroxydation lipidique is listed as “diminuer de manière dose-sensible le stress oxydatif”. For the same molecule, the survie des neurones result is on record as “restaure de manière significative la survie des neurones” with neurones corticaux (étifoxine 3 µM, p <0,05) and “restaure de manière significative la survie des neurones” with neurones corticaux (étifoxine 10 µM, p <0,01).
